Results reported in article PMC3749181, “Rapid Identification of Antifungal Compounds against Exserohilum rostratum Using High Throughput Drug Repurposing Screens” (PLoS ONE, 2013).
Like-named read-outs stand apart in the source and are kept apart here.

Assays:
[1] = system: SH-SY5Y cells; assay: SH-SY5Y cytotoxicity counter-screen (ATP content assay); assay type: cell-based, Human; settings: for SH-SY5Y % M. Res.: Inact. = no significant activity at 46 µM; for SH-SY5Y % Max. Resp.: Table 2, SH-SY5Y, inact. = no significant activity at 46 µM
Description: Human neuroblastoma SH-SY5Y cell line (Catalog No. CRL-2266) was purchased from ATCC (Manassas, VA). SH-SY5Y cell line was cultured in 175-cm^2 tissue culture flasks (Costar, Cambridge, MA) with 30 ml of growth medium at 37°C in a 5% CO2 humidified atmosphere. Growth medium was made with Dulbecco's Modified Eagle Medium: Nutrient Mixture F-12 with 10% fetal bovine serum (FBS). Growth medium was replaced every other day and cells were passed at 75% confluence.
(§1) The ATPLite assay kit, consisting of luciferase/luciferin and detergent, was used to quantitate cellular ATP levels as a marker for cell viability (Table 1). For assay development, hyphal fragments or conidia in PBS were plated in a seeding density of 3,750, 7,500 and 15,000 cellular particles/well with a final volume of 5 µl/well using the Multidrop-Combi dispenser in white 1536-well plates. Conidia or hyphae fragments were incubated for 24 h at 37°C in a 5% CO2 humidified atmosphere. ATPLite detection reagents were added at 4 µl/well. The assay plates were incubated at room temperature for 15 minutes before reading luminescence intensity on a ViewLux plate reader (Perkin Elmer, Waltham, MA). Conidia suspended in RPMI medium were inoculated at concentrations of 62.5, 125 and 250 conidia/well with a final volume of 5 µl/well in white 1536-well plates. The conidia assay was developed and optimized in the same way as the hyphal assay.
Two small known compound libraries including the LOPAC (1280 compounds) and approved drugs (4096 compounds) were screened in parallel using the above optimized assays for hyphae and conidia in 1536-well plates (Fig. 4). […] A mammalian SH-SY5Y cell line was used in parallel as a counter-screen with the same ATP content assay kit to assess the specificity of these compounds for E. rostratum.

[2] = system: E. rostratum hyphal fragments; assay: hyphal fragment fungicidal ATP content assay (PBS, 1536-well); assay type: cell-based, Exserohilum rostratum; settings: for Hyphae % M. Res. / Emax / Hyphae % Max. Resp.: 46 µM Amphotericin B = 100%; for IC50: read-out: Hyphae IC50
Description: (§2) Conidia and hyphae of E. rostratum were obtained as described by Richard et al., with the following modifications. Briefly, conidia were harvested from Potato Dextrose Agar (PDA) cultured media with 0.05% Tween 80, and the conidial suspension was filtered using a Cell Strainer (100 µm, BD Falcon REF 352340). After centrifugation at 700g for 10 min, the suspension was decanted and conidia were resuspended at 1×10^5 per ml in RPMI and counted in a hemocytometer. Hyphae were harvested from yeast extract peptone dextrose (YPD) culture media with 0.05% Tween 80. Hyphal fragments were sized by vortexing 15 sec twice with 0.4 mm glassbeads, and the hyphae suspension was filtered by cheese cloth twice. […] To normalize concentrations of hyphal fragments for batch to batch consistency, carbohydrate analysis was performed by a phenol-sulfuric acid method as previously described. The final stock concentration of hyphae was adjusted to 1.0 (OD490) per 100 µl.
as §1
(§3) The LOPAC library (Sigma-Aldrich) has been extensively used for HTS assay validations, [18]. The NIH Chemical Genomics Center Pharmaceutical (NPC) collection was constructed in-house through a combined effort of compound purchasing and custom synthesis and recently expanded to 4096 compounds. […] 2.5 µl/well PBS was dispensed into 1536-well plates using a Multidrop-Combi dispenser. Compound in DMSO solution was transferred in a volume of 23 nl/well using a NX-TR pintool station (WAKO Scientific Solutions, San Diego, CA). This additional PBS step for compound addition was designed to prevent the potential fungal contamination of compound libraries. The hyphal fragments in PBS were then added at 2.5 µl/well for a final seeding density of 15,000 hyphal fragments/well using the Multidrop-Combi dispenser. The final compound concentration was 46 µM in the primary screen. The assay plates were incubated for 24 h at 30°C before the detection of cellular viability with the ATP content assay. Screen of conidia was performed in a similar way except that PBS was replaced with RPMI medium and conidia were plated for a final seeding density of 250 conidia/well.
(§4) The primary screen data and curve fitting were analyzed using software developed internally at the NIH Chemical Genomics Center (NCGC). Total signals for cellular viability (100% cellular viability) were calculated from the wells with DMSO solvent and the complete cell killing (0% cellular viability) was calculated from 46 µM amphotericin B treated wells. […] All values were expressed as the mean +/− SD (n≥3).

[3] = system: E. rostratum conidia; assay: conidia growth inhibition ATP content assay (RPMI, 1536-well); assay type: cell-based, Exserohilum rostratum; settings: for Conidia % M. Res. / Emax / Conidia % Max. Resp.: 46 µM Amphotericin B = 100%; for IC50: read-out: Conidia IC50
Description: as §2, §1, §3, §4

[4] = Table S1, 46 µM Amphotericin B = 100%
[5] = Table S1, Inact. = no significant activity at the highest compound concentration (46 µM)
[6] = Table S1, Inact. = no significant activity in the primary screen
[7] = Table S1, Inact. = no significant activity at 46 µM
[8] = Exserohilum rostratum, Table 2, inact. = no significant activity in the primary screen, read-out: Hyphae % Max. Resp.
[9] = Exserohilum rostratum, Table 2, 24 h, inact. = no significant activity in the primary screen
[10] = Exserohilum rostratum, 24 h, Table 2, 24 h, inact. = no significant activity at the highest compound concentration (46 µM)
[11] = Exserohilum rostratum, Table 2, inact. = no significant activity at 46 µM, read-out: Conidia % Max. Resp.
[12] = Exserohilum rostratum, Table S1, Inact. = no significant activity in the primary screen, read-out: Hyphae % M. Res.
[13] = Exserohilum rostratum, Table S1, Inact. = no significant activity in the primary screen
[14] = Table 2, inact. = no significant activity in the primary screen
[15] = Table 2, 24 h, inact. = no significant activity in the primary screen
[16] = Table 2, inact. = no significant activity at 46 µM
[17] = Table 2, 24 h, inact. = no significant activity at the highest compound concentration (46 µM)
[18] = Exserohilum rostratum, Table S1, Inact. = no significant activity at 46 µM, read-out: Conidia % M. Res.

## Sc1nc2ccccc2s1 [2-Mercaptobenzothiazole]
[1]; [4]
  SH-SY5Y % M. Res.: Inact.
[1]; [5]
  SH-SY5Y IC50: Inact.
[2]; [6]
  Hyphae % M. Res.: Inact.
  Hyphae IC50: Inact.
[3]; [7]
  Conidia % M. Res.: Inact.
[3]; [5]
  Conidia IC50: Inact.

## CCC(C)(C)c1ccc(CC(C)CN2C[C@@H](C)O[C@@H](C)C2)cc1 (stereo partly drawn) [Amorolfine]
[1]; 46 µM Amphotericin B = 100%
  SH-SY5Y % Max. Resp.: inact.
[1]
  SH-SY5Y % Max. Resp.: inact.
[2]; [8]
  Emax: 81%
[2]; [9]
  IC50: 4.51 µM
[3]; [10]
  IC50: 7860 nM
[3]; [11]
  Emax: 102%

## Clc1ccc(C2(Cn3cncn3)OCCO2)c(Cl)c1 [Azaconazole]
[1]
  SH-SY5Y IC50: Inact.
[1]; [4]
  SH-SY5Y % M. Res.: Inact.
[2]; [12]
  Emax: 64%
[2]; [13]
  IC50: 46.9 µM
[3]
  Conidia IC50: Inact.
[3]; [7]
  Conidia % M. Res.: Inact.

## [N-]=[N+]=CC(=O)OC[C@H](N)C(=O)O [Azaserine]
[1]; [4]
  SH-SY5Y % M. Res.: Inact.
[1]; [5]
  SH-SY5Y IC50: Inact.
[2]; [6]
  Hyphae % M. Res.: Inact.
  Hyphae IC50: Inact.
[3]; [7]
  Conidia % M. Res.: Inact.
[3]; [5]
  Conidia IC50: Inact.

## CO/C=C(/C(=O)OC)c1ccccc1Oc1cc(Oc2ccccc2C#N)ncn1 [Azoxystrobin]
[1]; 46 µM Amphotericin B = 100%
  SH-SY5Y % Max. Resp.: inact.
[1]
  SH-SY5Y % Max. Resp.: inact.
[2]; [14]
  Hyphae % Max. Resp.: 81%
[2]; [15]
  IC50: 0.198 µM
[3]; [16]
  Conidia % Max. Resp.: 83%
[3]; [17]
  IC50: 304 nM

## c1ccc(-c2ccc(C(c3ccccc3)n3ccnc3)cc2)cc1 (stereo not drawn) [Bifonazole]
[1]; Homo sapiens, SH-SY5Y, Table S1, Inact. = no significant activity at the highest compound concentration (46 µM)
  IC50: 46.9 µM
[1]; [4]
  SH-SY5Y % M. Res.: 47%
[2]; [12]
  Emax: 74%
[2]; [13]
  IC50: 11.8 µM
[3]; Exserohilum rostratum, Table S1, Inact. = no significant activity at the highest compound concentration (46 µM)
  IC50: 9350 nM
[3]; [18]
  Emax: 64%

## Oc1c(Cl)cc(Cl)cc1Sc1cc(Cl)cc(Cl)c1O [Bithionol]
[1]; 46 µM Amphotericin B = 100%
  SH-SY5Y % Max. Resp.: inact.
[1]
  SH-SY5Y % Max. Resp.: inact.
[2]; [14]
  Hyphae % Max. Resp.: inact.
[2]; [15]
  Hyphae IC50: inact.
[3]; [10]
  IC50: 1870 nM
[3]; [11]
  Emax: 100%

## Cc1ccc2c(Br)cc(Br)c(O)c2n1 [Broquinaldol]
[1]; 46 µM Amphotericin B = 100%
  SH-SY5Y % Max. Resp.: inact.
[1]
  SH-SY5Y % Max. Resp.: inact.
[2]; [14]
  Hyphae % Max. Resp.: inact.
[2]; [15]
  Hyphae IC50: inact.
[3]; [10]
  IC50: 7750 nM
[3]; [11]
  Emax: 101%

## Oc1c(Br)cc(Br)c2cccnc12 [Broxyquinoline]
[1]; 46 µM Amphotericin B = 100%
  SH-SY5Y % Max. Resp.: 100%
[1]
  SH-SY5Y % Max. Resp.: 58.9%
[2]; [8]
  Emax: 96%
[2]; [9]
  IC50: 4.51 µM
[3]; [10]
  IC50: 1600 nM
[3]; [11]
  Emax: 98%

## CNc1ccc2oc(C[C@H]3O[C@@]4(CC[C@H]3C)O[C@H]([C@H](C)C(=O)c3ccc[nH]3)[C@H](C)C[C@H]4C)nc2c1C(=O)O [Calcimycin]
[1]; 46 µM Amphotericin B = 100%
  SH-SY5Y % Max. Resp.: 94%
[1]
  SH-SY5Y % Max. Resp.: 3.95%
[2]; [14]
  Hyphae % Max. Resp.: inact.
[2]; [15]
  Hyphae IC50: inact.
[3]; Exserohilum rostratum, 24 h
  IC50: 735 nM
[3]; [11]
  Emax: 51%

## O=C1C2CC=CCC2C(=O)N1SC(Cl)(Cl)Cl (stereo not drawn) [Captan]
[1]; 46 µM Amphotericin B = 100%
  SH-SY5Y % Max. Resp.: 100%
[1]
  SH-SY5Y % Max. Resp.: 18.6%
[2]; [8]
  Emax: 82%
[2]; [9]
  IC50: 1.17 µM
[3]; [16]
  Conidia % Max. Resp.: inact.
[3]; [17]
  Conidia IC50: inact.

## COCc1c(C(C)C)nc(C(C)C)c(/C=C/[C@@H](O)C[C@@H](O)CC(=O)O)c1-c1ccc(F)cc1 [Cerivastatin sodium]
[1]; 46 µM Amphotericin B = 100%
  SH-SY5Y % Max. Resp.: inact.
[1]
  SH-SY5Y % Max. Resp.: inact.
[2]; [8]
  Emax: 79%
[2]; [9]
  IC50: 1.61 µM
[3]; [10]
  IC50: 472 nM
[3]; [11]
  Emax: 101%

## Oc1c(I)cc(Cl)c2cccnc12 [Clioquinol]
[1]; 46 µM Amphotericin B = 100%
  SH-SY5Y % Max. Resp.: 60%
[1]
  SH-SY5Y % Max. Resp.: 37.2%
[2]; [14]
  Hyphae % Max. Resp.: inact.
[2]; [15]
  Hyphae IC50: inact.
[3]; [10]
  IC50: 975 nM
[3]; [11]
  Emax: 103%

## CCCCCCCCCC(=O)NO [Decanohydroxamic acid]
[1]; [4]
  SH-SY5Y % M. Res.: Inact.
[1]; [5]
  SH-SY5Y IC50: Inact.
[2]; [6]
  Hyphae % M. Res.: Inact.
  Hyphae IC50: Inact.
[3]; [7]
  Conidia % M. Res.: Inact.
[3]; [5]
  Conidia IC50: Inact.

## Cc1cc(N)c2ccccc2[n+]1CCCCCCCCCC[n+]1c(C)cc(N)c2ccccc21 [Dequalinium dichloride]
[1]; 46 µM Amphotericin B = 100%
  SH-SY5Y % Max. Resp.: inact.
[1]
  SH-SY5Y % Max. Resp.: inact.
[2]; [8]
  Emax: 93%
[2]; [9]
  IC50: 0.673 µM
[3]; [10]
  IC50: 2540 nM
[3]; [11]
  Emax: 109%

## N[C@@H](COP(=O)(O)O)C(=O)O [Dexfosfoserine]
[1]; [4]
  SH-SY5Y % M. Res.: Inact.
[1]; [5]
  SH-SY5Y IC50: Inact.
[2]; [6]
  Hyphae % M. Res.: Inact.
  Hyphae IC50: Inact.
[3]; [7]
  Conidia % M. Res.: Inact.
[3]; [5]
  Conidia IC50: Inact.

## Clc1ccc(COC(Cn2ccnc2)c2ccc(Cl)cc2Cl)cc1 (stereo not drawn) [Econazole nitrate]
[1]; [4]
  SH-SY5Y % M. Res.: Inact.
[2]; [12]
  Emax: 77%
[3]; [18]
  Emax: 64%
